Experimental findings from patent US11795162B2, “Modulators of the estrogen-related receptor” (Saint Louis University, priority 2017, dated 2023) are described below.

Where only a bound is given, the exact number is not on record here.

The assay addresses T1, ERR gamma protein (Homo sapiens, UniProt P62508).
T1 sequence (P62508 1-458): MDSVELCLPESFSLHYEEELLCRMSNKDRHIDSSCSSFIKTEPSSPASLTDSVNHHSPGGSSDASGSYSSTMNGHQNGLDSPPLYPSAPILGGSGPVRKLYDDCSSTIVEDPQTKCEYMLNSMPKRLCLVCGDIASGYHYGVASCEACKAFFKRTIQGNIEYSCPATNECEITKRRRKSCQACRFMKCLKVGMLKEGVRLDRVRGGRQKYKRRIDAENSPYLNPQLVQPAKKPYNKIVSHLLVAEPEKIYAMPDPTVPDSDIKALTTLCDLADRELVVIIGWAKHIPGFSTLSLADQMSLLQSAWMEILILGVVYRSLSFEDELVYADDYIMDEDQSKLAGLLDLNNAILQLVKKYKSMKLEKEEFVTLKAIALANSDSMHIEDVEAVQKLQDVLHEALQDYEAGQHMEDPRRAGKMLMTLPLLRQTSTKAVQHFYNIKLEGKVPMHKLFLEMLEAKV
Put plainly: Protein thermal shift assay. The assay is classed as binding. The following applies: compound at 20 μM; ERR gamma protein 0.1 mg/mL, SYPRO-Orange; read-out: T.S. (thermal shift) range. How it is done:
Six replicate reactions were set up and run in Applied Biosystems Quantstudio 7 Real-Time PCR system. Data were collected at a ramp rate of 0.05° C./s from 24° C. through 95° C. and analyzed using Protein Thermal Shift Software 1.3.

On to `O=C(Nc1cccnc1)c1ccc(-c2ccsc2)s1` [Compound 103], for which the ΔTm at 20 µM is 0 to 2 °C.
For `O=C(Nc1cccnc1)c1ccc(-c2cccc(F)c2)s1` [Compound 89], the ΔTm at 20 µM lay within 0 to 2 °C.
As for `O=C(Nc1cccc(F)c1)c1ncc(-c2ccc(O)cc2)s1` [Compound 11, N-(3-fluorophenyl)-5-(4-hydroxyphenyl)thiazole-2-carboxamide], the ΔTm at 20 µM is greater than 4 °C.
Regarding `N#Cc1cccc(-c2ccc(C(=O)Nc3cccnc3)s2)c1` [Compound 97], the ΔTm at 20 µM lay in the range of 0 to 2 °C.
As for `CC(C)c1ccc(-c2ccc(C(=O)Nc3ccc(O)cc3)s2)cc1` [Compound 13], the ΔTm at 20 µM was 0 to 2 °C.
For `O=C(Nc1cccnc1)c1ccc(-c2ccc(F)cc2)s1` [Compound 93], the ΔTm at 20 µM lay within 0 to 2 °C.
In the case of `Nc1cccc(-c2ccc(C(=O)Nc3ccc4ccccc4c3)s2)c1` [Compound 54] it was 2 to 4 °C.
Turning to `O=C(Nc1cccc(O)c1)c1nc(-c2ccsc2)cs1` [Compound 152], the ΔTm at 20 µM was in the range of 0 to 2 °C.
As for `O=C(Nc1cccc(B(O)O)c1)c1ccc(-c2ccsc2)s1` [Compound 57], the ΔTm at 20 µM was greater than 4 °C.
Then `O=C(Nc1cccc(F)c1)c1ccc(-c2ccc(O)cc2)s1` [Compound 7, N-(3-fluorophenyl)-5-(4-hydroxyphenyl)thiophene-2-carboxamide], with greater than 4 °C.
In the case of `O=C(Nc1ccc(F)cc1)c1ncc(-c2ccc(O)cc2)s1` [Compound 144] it was 2 to 4 °C; in that of `O=C(Nc1cccc(C(F)(F)F)c1)c1ccc(-c2ccncc2)s1` [Compound 70], 0 to 2 °C.
Then `N#Cc1ccc(-c2ccc(C(=O)Nc3ccc(Cl)cc3)s2)cc1` [Compound 99], with 0 to 2 °C; and `O=C(Nc1ccc(O)cc1)c1nc(-c2ccsc2)cs1` [Compound 153], with 0 to 2 °C; and `CC(C)c1cccc(-c2ccc(C(=O)Nc3cccnc3)s2)c1` [Compound 118], with 0 to 2 °C.
As to `CC(C)c1ccc(-c2ccc(COc3ccccc3)s2)cc1` [Compound 4, 2-(4-isopropylphenyl)-5-(phenoxymethyl)thiophene], the ΔTm at 20 µM fell in the range of 0 to 2 °C.
Turning to `N#Cc1ccc(-c2ccc(C(=O)Nc3cccnc3)s2)cc1` [Compound 100], the ΔTm at 20 µM lay within 0 to 2 °C.
Consider `COc1ccc(NC(=O)c2ccc(-c3ccc(N)cc3)s2)cc1` [Compound 18], for which the ΔTm at 20 µM was 0 to 2 °C.
As to `O=C(Nc1ccc(C(F)(F)F)cc1)c1ccc(-c2ccncc2)s1` [Compound 69], the ΔTm at 20 µM lay within 0 to 2 °C.
Take `O=C(Nc1cccnc1)c1ccc(-c2ccccc2F)s1` [Compound 85]: the ΔTm at 20 µM fell in the range of 0 to 2 °C.
With `CC(C)Cc1ccc(-c2ccc(C(=O)Nc3ccc(O)cc3)s2)cc1` [Compound 79], the ΔTm at 20 µM lay in the range of 2 to 4 °C.
As for `O=C(Nc1cccc(O)c1)c1ncc(-c2ccsc2)s1` [Compound 147], the ΔTm at 20 µM lay within 0 to 2 °C.
In the case of `O=C(Nc1ccc(Cl)cc1)c1cc(-c2ccc(O)cc2)[nH]n1` [Compound 124] it was 2 to 4 °C.
Consider `O=C(Nc1ccc(C(F)(F)F)cc1)c1ccc(-c2ccc(O)cc2)s1` [Compound 68], for which the ΔTm at 20 µM lay within 0 to 2 °C.
For `O=C(Nc1ccncc1)c1ccc(-c2ccccc2F)s1` [Compound 86], the ΔTm at 20 µM lay within 0 to 2 °C.
Consider `O=C(Nc1ccc2ccccc2c1)c1ccc(-c2cccc(O)c2)s1` [Compound 53], for which the ΔTm at 20 µM is greater than 4 °C.
On to `CC(C)Oc1ccc(-c2ccc(C(=O)Nc3ccncc3)s2)cc1` [Compound 116], for which the ΔTm at 20 µM is 0 to 2 °C.
As to `O=C(Nc1ccc(O)cc1)c1cc(-c2cccc(O)c2)[nH]n1` [Compound 134], the ΔTm at 20 µM lay in the range of 0 to 2 °C.
Then `CC(C)c1ccc(-c2ccc(C(=O)Nc3cccnc3)s2)cc1` [Compound 138], with 0 to 2 °C; and `O=C(Nc1ccccc1F)c1ccc(-c2ccc(C(=O)C(F)(F)F)cc2)s1` [Compound 12, N-(2-fluorophenyl)-5-(4-(2,2,2-trifluoroacetyl)phenyl)thiophene-2-carboxamide], with 0 to 2 °C.
`O=C(Nc1ccc(O)cc1)c1ncc(-c2ccsc2)s1` [Compound 146]: the ΔTm at 20 µM lay in the range of 2 to 4 °C.
On to `O=C(Nc1cccnc1)c1ccc(-c2cccc(C(F)(F)F)c2)s1` [Compound 108], for which the ΔTm at 20 µM is 0 to 2 °C.
As to `Cc1ccccc1NC(=O)c1ccc(-c2cccc(O)c2)s1` [Compound 149], the ΔTm at 20 µM was in the range of 0 to 2 °C.
In the case of `CC(C)Oc1ccc(-c2ccc(C(=O)Nc3cccnc3)s2)cc1` [Compound 115] it was 0 to 2 °C.
Consider `O=C(NCc1ccc(Cl)cc1)c1ccc(-c2cccc(O)c2)o1` [Compound 136], for which the ΔTm at 20 µM is 0 to 2 °C.
Consider `O=C(Nc1ccc2ccccc2c1)c1ccc(-c2ccc(O)cc2)s1` [Compound 31], for which the ΔTm at 20 µM fell in the range of 0 to 2 °C.
As for `O=C(Nc1ccncc1)c1ccc(-c2ccc3ccccc3c2)s1` [Compound 120], the ΔTm at 20 µM was 2 to 4 °C.
Then `O=C(Nc1ccncc1)c1ccc(-c2ccc(C(F)(F)F)cc2)s1` [Compound 113], with 0 to 2 °C; and `O=C(Nc1ccc(Cl)cc1)c1ccc(-c2ccccc2F)s1` [Compound 84], with 2 to 4 °C; and `CC(C)Cc1ccc(-c2ccc(C(=O)Nc3ccncc3)s2)cc1` [Compound 78], with 2 to 4 °C.
Regarding `O=C(Nc1cccnc1)c1ccc(-c2ccc3ccccc3c2)s1` [Compound 106], the ΔTm at 20 µM was in the range of 2 to 4 °C.
For the molecule `CC(C)c1ccc(-c2ccc(C(=O)Nc3ccncc3)s2)cc1` [Compound 139], the ΔTm at 20 µM fell in the range of 2 to 4 °C.
Then `O=C(Nc1ccc(Cl)cc1)c1ccc(-c2ccc(F)cc2)s1` [Compound 92], with 0 to 2 °C; and `CC(C)Cc1ccc(-c2ccc(C(=O)Nc3cccnc3)s2)cc1` [Compound 77], with 0 to 2 °C.
Regarding `O=C(O)c1ccc(-c2ccc(C(=O)Nc3ccc(F)cc3)s2)cc1` [Compound 48], the ΔTm at 20 µM fell in the range of 0 to 2 °C.
On to `O=C(Nc1cccnc1)c1ccc(-c2ccc(C(F)(F)F)cc2)s1` [Compound 112], for which the ΔTm at 20 µM was in the range of 0 to 2 °C.
With `N#Cc1cccc(-c2ccc(C(=O)Nc3ccc(Cl)cc3)s2)c1` [Compound 96], the ΔTm at 20 µM fell in the range of 0 to 2 °C.
Take `Cc1ccc(-c2ccc(C(=O)Nc3ccc(Cl)cc3)s2)cc1C` [Compound 80]: the ΔTm at 20 µM lay within 0 to 2 °C.
Consider `CC(C)Cc1ccc(-c2ccc(C(=O)Nc3ccc(Cl)cc3)s2)cc1` [Compound 76], for which the ΔTm at 20 µM is 0 to 2 °C.
With `N#Cc1cccc(-c2ccc(C(=O)Nc3ccc(O)cc3)s2)c1` [Compound 98], the ΔTm at 20 µM lay in the range of 2 to 4 °C.
Turning to `O=C(Nc1ccncc1)c1ccc(-c2cccc(C(F)(F)F)c2)s1` [Compound 109], the ΔTm at 20 µM fell in the range of 2 to 4 °C.
Consider `CCOc1ccc(NC(=O)c2ccc(-c3cccc(N)c3)s2)cc1` [Compound 51], for which the ΔTm at 20 µM is greater than 4 °C.
Regarding `O=C(Nc1ccc2ccccc2c1)c1cc(-c2cccc(O)c2)[nH]n1` [Compound 123], the ΔTm at 20 µM is 2 to 4 °C.
For the molecule `Cc1ccc(NC(=O)c2cc(-c3cccc(O)c3)[nH]n2)cc1` [Compound 126], the ΔTm at 20 µM lay in the range of 0 to 2 °C.
In the case of `O=C(Nc1cccc(O)c1)c1cnc(-c2ccsc2)o1` [Compound 141] it was 0 to 2 °C; in that of `O=C(Nc1ccccc1F)c1ccc(-c2cccc(C(=O)C(F)(F)F)c2)s1` [Compound 154], 0 to 2 °C; in that of `O=C(Nc1ccccc1F)c1ccc(-c2cccc(B(O)O)c2)s1` [Compound 59], 0 to 2 °C.
Turning to `COc1cc(NC(=O)c2ccc(-c3ccc(Cl)cc3)s2)cc(OC)c1` [Compound 75], the ΔTm at 20 µM was in the range of 0 to 2 °C.
In the case of `O=C(Nc1ccc(F)cc1)c1ccc(-c2ccc(B(O)O)cc2)s1` [Compound 17] it was 2 to 4 °C.
Then `Nc1cccc(NC(=O)c2ccc(-c3ccc(Cl)cc3)s2)c1` [Compound 132], with greater than 4 °C.
In the case of `O=C(Nc1cccc(C(F)(F)F)c1)c1ccc(-c2ccc(O)cc2)s1` [Compound 71] it was 0 to 2 °C; in that of `O=C(NC1CCCCC1)c1ccc(-c2ccc(O)cc2)s1` [Compound 49], 2 to 4 °C.
For the molecule `O=C(Nc1ccncc1)c1ccc(-c2ccc(F)cc2)s1` [Compound 94], the ΔTm at 20 µM fell in the range of 0 to 2 °C.
Then `Cc1ccc(-c2ccc(C(=O)Nc3cccnc3)s2)cc1C` [Compound 81], with 0 to 2 °C.
In the case of `COc1ccc(NC(=O)c2ccc(-c3ccsc3)s2)cc1` [Compound 73] it was 0 to 2 °C; in that of `CC(C)(C)c1ccc(NC(=O)c2cc(-c3cccc(O)c3)[nH]n2)cc1` [Compound 128], 0 to 2 °C; in that of `O=C(Nc1ccc(Cl)cc1)c1ccc(-c2ccc(C(F)(F)F)cc2)s1` [Compound 111], 0 to 2 °C.
Take `CC(C)c1ccc(-c2ccc(C(=O)Nc3cccc(O)c3)s2)cc1` [Compound 140]: the ΔTm at 20 µM is 0 to 2 °C.
Then `O=C(Nc1cccc(F)c1)c1ccc(-c2cnc(O)nc2)s1` [Compound 58], with 0 to 2 °C; and `Nc1ccc(-c2ccc(C(=O)NCc3cccc(F)c3)o2)cc1` [Compound 36], with 0 to 2 °C.
As for `O=C(Nc1ccc(F)cc1)c1nc(-c2cccc(O)c2)cs1` [Compound 150], the ΔTm at 20 µM was in the range of 0 to 2 °C.
On to `Cc1cccc(NC(=O)c2ccc(-c3ccc(O)cc3)s2)c1` [Compound 19], for which the ΔTm at 20 µM lay within 0 to 2 °C.
Regarding `Nc1cccc(-c2ccc(C(=O)NCc3ccccc3)s2)c1` [Compound 142], the ΔTm at 20 µM fell in the range of 0 to 2 °C.
